# In patent US20250381179A1, “CHROMAN-BASED COMPOUNDS FOR TREATING CANCER” (priority 2024, published 2025):
# Experiment: Phase 1 study: safety and tolerability (TEAEs, NCI CTCAE v5.0)
# Protocol: The study employed an open-label, 3+3 design, with the option of adding backfill patients to each cohort cleared and deemed safe. […] Tumor responses were assessed every 2 cycles using RECIST v1.1 criteria. […] The study also involves an ongoing dose escalation study where participants receive 100 mg, 200 mg, 300 mg, 400 mg, and 600 mg once daily (QD) dose levels.
# Safety was assessed through the analysis of the reported incidence of treatment-emergent AEs. Treatment-emergent AEs are those with an onset on or after the initiation of therapy and will be graded according to NCI CTCAE Version 5.0. Other safety endpoints, including laboratory results, vital signs, and ECG findings, were summarized for all patients in the Safety set.
# [1] = Cohort 2/200 mg QD, patient 4, first listed event
# [2] = Cohort 2/200 mg QD, patient 4, second listed event
# [3] = Cohort 3/300 mg QD, patient 1, first listed event
# [4] = Cohort 3/300 mg QD, patient 1, second listed event
structure (smiles),measurement,setting,value
"O=C1CC[C@H](N2Cc3cc(N4CCN(CC5CCN(c6ccc([C@@H]7c8ccc(O)cc8OC[C@@H]7c7ccccc7)cc6F)CC5)CC4)ccc3C2=O)C(=O)N1 [compound (1-g), (S)-3-(5-(4-((1-(2-fluoro-4-((3S,4R)-7-hydroxy-3-phenylchroman-4-yl)phenyl)piperidin-4-yl)methyl)piperazin-1-yl)-1-oxoisoindolin-2-yl)piperidine-2,6-dione]",Duration of TEAE leading to dose interruption: Pain in extremity,[1],56 days
same,"Related to Compound (1-g), TEAE leading to dose interruption: Pain in extremity",[1],No
same,CTCAE Grade of TEAE leading to dose interruption: Pain in extremity,[2],2
same,"Related to Compound (1-g), TEAE leading to dose interruption: Pain in extremity",[2],No
same,participants with TEAEs that led to dose interruption,Cohort 3 (300 mg QD),2 participants
same,CTCAE Grade of TEAE leading to dose interruption: Anaemia,"Cohort 3/300 mg QD, patient 1",3
same,"Related to Compound (1-g), TEAE leading to dose interruption: Anaemia","Cohort 3/300 mg QD, patient 1",No
same,CTCAE Grade of TEAE leading to dose interruption: Acute kidney injury,[3],3
same,Duration of TEAE leading to dose interruption: Acute kidney injury,[3],6 days
same,"Related to Compound (1-g), TEAE leading to dose interruption: Acute kidney injury",[3],No
same,CTCAE Grade of TEAE leading to dose interruption: Acute kidney injury,[4],3
same,Duration of TEAE leading to dose interruption: Acute kidney injury,[4],7 days
same,"Related to Compound (1-g), TEAE leading to dose interruption: Acute kidney injury",[4],No
same,CTCAE Grade of TEAE leading to dose interruption: Muscular weakness,"Cohort 3/300 mg QD, patient 2",2
same,CTCAE Grade of TEAE leading to dose interruption: Upper respiratory tract infection,"Cohort 3/300 mg QD, patient 2",2
same,Duration of TEAE leading to dose interruption: Upper respiratory tract infection,"Cohort 3/300 mg QD, patient 2",8 days
same,"Related to Compound (1-g), TEAE leading to dose interruption: Muscular weakness","Cohort 3/300 mg QD, patient 2",No
same,"Related to Compound (1-g), TEAE leading to dose interruption: Upper respiratory tract infection","Cohort 3/300 mg QD, patient 2",No
same,participants with TEAEs that led to dose interruption,"Cohort 4 and 5 (400, 600 mg QD)",No participant experienced TEAEs that led to dose interruption
same,"Constipation, Related-TEAE All Grades",N = 37,3 n (%)
same,"Constipation, Related-TEAE Grade ≥ 3",N = 37,0 n (%)
same,"Constipation, TEAE All Grades",N = 37,4 (11) n (%)
same,"Constipation, TEAE Grade ≥ 3",N = 37,0 n (%)
same,"Dehydration, Related-TEAE All Grades",N = 37,0 n (%)
same,"Dehydration, Related-TEAE Grade ≥ 3",N = 37,0 n (%)
same,"Dehydration, TEAE All Grades",N = 37,5 (14) n (%)
same,"Dehydration, TEAE Grade ≥ 3",N = 37,2 (5) n (%)
same,"Fatigue, Related-TEAE All Grades",N = 37,2 n (%)
same,"Fatigue, Related-TEAE Grade ≥ 3",N = 37,0 n (%)
same,"Fatigue, TEAE All Grades",N = 37,6 (16) n (%)
same,"Fatigue, TEAE Grade ≥ 3",N = 37,1 (3) n (%)
same,Grade 5 event of seizure,N = 37,1 event
same,"Hot flush, Related-TEAE All Grades",N = 37,5 n (%)
same,"Hot flush, Related-TEAE Grade ≥ 3",N = 37,0 n (%)
same,"Hot flush, TEAE All Grades",N = 37,5 (14) n (%)
same,"Hot flush, TEAE Grade ≥ 3",N = 37,0 n (%)
same,"Nausea, Related-TEAE All Grades",N = 37,5 n (%)
same,"Nausea, Related-TEAE Grade ≥ 3",N = 37,0 n (%)
same,"Nausea, TEAE All Grades",N = 37,7 (19) n (%)
same,"Nausea, TEAE Grade ≥ 3",N = 37,0 n (%)
same,"Neutrophil count decreased, Related-TEAE All Grades",N = 37,4 n (%)
same,"Neutrophil count decreased, Related-TEAE Grade ≥ 3",N = 37,0 n (%)
same,"Neutrophil count decreased, TEAE All Grades",N = 37,6 (16) n (%)
same,"Neutrophil count decreased, TEAE Grade ≥ 3",N = 37,1 (3) n (%)
same,"TEAE constipation, participants",N = 37,10.8%
same,"TEAE dehydration, participants",N = 37,13.5%
same,"TEAE fatigue, participants",N = 37,16.2%
same,"TEAE hot flush, participants",N = 37,13.5%
same,"TEAE nausea, participants",N = 37,18.9%
same,"TEAE neutrophil count decreased, participants",N = 37,16.2%
same,compound-related SAEs,N = 37,No compound (1-g)-related SAEs were observed
same,"deaths reported, all assessed as unrelated to compound (1-g)",N = 37,3 deaths
same,dose reductions or treatment discontinuations due to TEAEs,N = 37,no dose reductions or treatment discontinuations due to TEAEs
same,grade of treatment-related AEs,N = 37,All treatment-related AEs were Grade 1 or 2
same,participants with at least a TEAE,N = 37,78%
same,patients experiencing SAEs (nine SAEs),N = 37,8 patients
same,"related TEAE hot flush, participants",N = 37,13.5%
same,"related TEAE nausea, participants",N = 37,13.5%
same,"related TEAE neutrophil count decrease, participants",N = 37,10.8%
same,relatedness of TEAEs that led to dose interruption,N = 37,None of these were considered related to compound (1-g)
same,participants with compound (1-g) related TEAEs,"N = 37, fifteen participants",40.5%
same,participants with Grade 23 TEAEs,"N = 37, ten participants",27.0%
same,Patients with Any Compound (1-g) related TEAE,Overall (N = 37),15 (40.5) n (%)
same,Patients with Any TEAE,Overall (N = 37),29 (78.4) n (%)
same,TEAE: Abdominal Distension,Overall (N = 37),1 (2.7) n (%)
same,TEAE: Abdominal Pain,Overall (N = 37),2 (5.4) n (%)
same,TEAE: Acute Kidney Injury,Overall (N = 37),1 (2.7) n (%)
same,TEAE: Adrenal Insufficiency,Overall (N = 37),1 (2.7) n (%)
same,TEAE: Alopecia,Overall (N = 37),1 (2.7) n (%)
same,TEAE: Anaemia,Overall (N = 37),2 (5.4) n (%)
same,TEAE: Anxiety,Overall (N = 37),1 (2.7) n (%)
same,TEAE: Arthralgia,Overall (N = 37),2 (5.4) n (%)
same,TEAE: Axillary Vein Thrombosis,Overall (N = 37),1 (2.7) n (%)
same,TEAE: Back Pain,Overall (N = 37),3 (8.1) n (%)
